Assay results published in US11053475B2, “Methods of expanding hematopoietic stem cells, compositions, and methods of use thereof” (WISCONSIN ALUMNI RESEARCH FOUNDATION, priority 2015, dated 2021).

How the values were obtained:
[1] = test system: Lin- hematopoietic precursors from E14.5 fetal livers; assay: Erythroid maturation (CD71/Ter119, R1-R5) of E14.5 fetal liver hematopoietic precursors, flow cytometry; format: cell-based, mouse; conditions: Lin- HSPCs from fetal liver, DMSO as control, 3 days
Procedure: Primary erythroid precursor cell isolation. Primary erythroid precursors were isolated from E14.5 fetal livers using the EasySep™ negative selection Mouse Hematopoietic Progenitor Cell Enrichment Kit (StemCell Technologies). Briefly, fetal livers were dissociated by pipetting and resuspended at 5×10^7 cell/ml in PBS containing 2% FBS, 2.5 mM EDTA, and 10 mM glucose. EasySep™ Mouse Hematopoietic Progenitor Cell Enrichment Cocktail was added at 50 μg/ml supplemented with 2.5 μg/ml biotin-conjugated CD71 antibody (eBioscience). After 15 min incubation on ice, the cells were washed by centrifugation for […] at 1200 rpm at 4° C. and resuspended at 5×10^7 cell/ml in PBS containing 2% FBS, 2.5 mM EDTA, and 10 mM glucose, and EasySep™ Biotin Selection Cocktail was added at 100 μg/ml. After 15 min incubation at 4° C., EasySep™ Mouse Progenitor Magnetic Microparticles were added at 50 μg/ml. […]
Flow cytometry. […] APC-conjugated antibody CD31 (MEC13.3, Biolegend), PE-conjugated antibody c-Kit (2B8, eBioscience), PerCP-Cy5.5-conjugated antibody Scal (D7, eBioscience), APC-conjugated antibody Ter119 (TER119, eBioscience) and PE-conjugated CD71 (R17217, eBioscience) were used for flow cytometry and Fluorescence Activated Cell Sorting (FACS). Samples were analyzed on a FACSAria™ II cell sorter (BD Biosciences). […]

Gata2 expression = assay: RT-PCR and Western blot of Gata2/GATA-2 and GATA-2 target genes in fetal liver cells and FACS-sorted R2 cells; format: cell-based, mouse; conditions: total fetal liver cells, compound treatment, 72 h
Procedure: Cell culture. G1E-ER-GATA-1 cells were cultured with or without 1 μM estradiol as previously described. Fetal liver erythroid precursor cells were cultured and maintained at a density of 2.5×10^5−1×10^6 cells/ml in StemPro®-34 (Gibco) supplemented with 10% nutrient supplement (Gibco), 2 mM L-glutamine (Cellgro), 1% Penicillin/streptomycin (Cellgro), 100 μM monothioglycerol (Sigma-Aldrich), 1 μM dexamethasone (Sigma-Aldrich), 0.5 U/ml of erythropoietin, and 1% conditioned medium from a kit ligand-producing CHO cell line for expansion. Cells were cultured in a humidified incubator at 37° C. (5% carbon dioxide).
Quantitative real-time RT-PCR. […] Real-time PCR was performed with SYBR green master mix (Applied Biosystems) and Product accumulation was monitored by SYBR green fluorescence using either a StepOnePlus™ or Viia™7 instrument (Applied Biosystems). Relative expression was determined from a standard curve of serial dilutions of cDNA samples, and values were normalized to 18S RNA expression. […]
Flow cytometry. […] APC-conjugated antibody CD31 (MEC13.3, Biolegend), PE-conjugated antibody c-Kit (2B8, eBioscience), PerCP-Cy5.5-conjugated antibody Scal (D7, eBioscience), APC-conjugated antibody Ter119 (TER119, eBioscience) and PE-conjugated CD71 (R17217, eBioscience) were used for flow cytometry and Fluorescence Activated Cell Sorting (FACS). […]

SMILES	activity on erythropoiesis (flow analysis, R1-R5), compared with psychosine [1]	Gata2 mRNA level vs DMSO-treated control (Gata2 expression)	Gata2 primary transcript level vs DMSO-treated control (Gata2 expression)
CCCCCCCCCCCCC/C=C/[C@@H](O)C(N)CO[C@H]1O[C@H](CO)[C@@H](O[C@@H]2O[C@H](CO)[C@H](O)[C@H](O)[C@H]2O)[C@H](O)[C@@H]1O (stereo partly drawn) [lactosylsphingosine]	not	–	–
CCCCCCCCCCCCC/C=C/C(O)C(N)CO[C@@H]1O[C@H](CO)[C@H](O)[C@H](O)[C@H]1O (stereo partly drawn) [psychosine, galactosylsphingosine]	–	2-3 fold	2-3 fold
